In patent US10654828B2 (NOVARTIS AG, priority 2017, dated 2020):
Where two headings read alike, the source gives them in different places.

Tests used:
[1] = tested on: FoxO3a; experiment: FoxO3a inhibition: GFP-FoxO3a nuclear to cytoplasmic translocation reporter assay; assay type: cell-based; details: U2OS GFP-FoxO3a H212R cells, serum starved overnight, compound 30 minutes, ratio of nuclear to cytosolic GFP intensity, DMSO control 0%, read-out: FoxO AC50
Outline: (§1)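 Serum-starved U2OS cells expressing GFP-FoxO3a H212R treated with compounds 30 min, fixed, imaged. FoxO3a: nuclear/cytosolic GFP ratio, %. AKT: total cellular phospho-AKT (Ser473) antibody staining intensity, %. DMSO set as 0% activity.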

[2] = tested on: AKT; experiment: AKT activation: Phospho-AKT (Ser473) antibody staining in reporter cells; assay type: cell-based; details: U2OS GFP-FoxO3a H212R cells, serum starved overnight, compound 30 minutes, total cellular intensity of Phospho-AKT (Ser473) staining, DMSO control 0%
Outline: as §1

Compound | AC50 ([1]; Homo sapiens, U2OS, 0.5 h) | AC50 ([2]; Homo sapiens, U2OS, 0.5 h) | AC50 [1] | AC50 [2]
Cc1cc(C(N)=O)nn1-c1ccc2c(ccn2Cc2ccc(-c3ccc(F)cc3)cc2)c1 [Example 1-27, 1-(1-((4′-fluoro-[1,1′-biphenyl]-4-yl)methyl)-1H-indol-5-yl)-5-methyl-1H-pyrazole-3-carboxamide] | 229 nM | > 10000 nM | – | –
Cc1cc(C(N)=O)nn1-c1ccc2c(ccn2Cc2ccc(C3=CCN(C)CC3(C)C)cc2)c1 [Example 15-2, 5-methyl-1-(1-(4-(1,3,3-trimethyl-1,2,3,6-tetrahydropyridin-4-yl)benzyl)-1H-indol-5-yl)-1H-pyrazole-3-carboxamide] | 197 nM | 389 nM | – | –
Cc1cc(C(N)=O)nn1-c1ccc2c(ccn2Cc2ccc(-c3ccc(C(C)(C)O)cn3)cc2)c1 [Example 30-2, 1-(1-(4-(5-(2-hydroxypropan-2-yl)pyridin-2-yl)benzyl)-1H-indol-5-yl)-5-methyl-1H-pyrazole-3-carboxamide] | 223 nM | 320 nM | – | –
Cc1cc(C(N)=O)nn1-c1ccc2c(ccn2Cc2ccc(-c3ccc(S(C)(=O)=O)nc3)cc2)c1 [Example 30-1, 5-methyl-1-(1-(4-(6-(methylsulfonyl)pyridin-3-yl)benzyl)-1H-indol-5-yl)-1H-pyrazole-3-carboxamide] | 124 nM | 633 nM | – | –
Cc1cc(C(N)=O)nn1-c1ccc2c(ccn2Cc2ccc(N3CCNCC3)cc2)c1 [Example 11-1, 5-methyl-1-(1-(4-(piperazin-1-yl)benzyl)-1H-indol-5-yl)-1H-pyrazole-3-carboxamide] | 4080 nM | > 10000 nM | – | –
Cc1cc(C(N)=O)nn1-c1ccc2c(ccn2Cc2ccc(-c3ccc(CN4CCNCC4)cc3)cc2)c1 [Example 35, 5-methyl-1-(1-((4′-(piperazin-1-ylmethyl)-[1,1′-biphenyl]-4-yl)methyl)-1H-indol-5-yl)-1H-pyrazole-3-carboxamide] | 181 nM | 603 nM | – | –
Cc1nc(C(N)=O)nn1-c1ccc2c(ccn2Cc2ccc(-c3ccc(CN4CCCC4)cc3)cc2)c1 [Example 28, 5-methyl-1-(1-((4′-(pyrrolidin-1-ylmethyl)-[1,1′-biphenyl]-4-yl)methyl)-1H-indol-5-yl)-1H-1,2,4-triazole-3-carboxamide] | 87 nM | 251 nM | – | –
Cc1cc(C(N)=O)nn1-c1ccc2c(ccn2Cc2ccc(C3=CCN(C)CC3C)cc2)c1 (single isomer, unassigned) [Example 17-2, 1-(1-(4-(1,3-dimethyl-1,2,3,6-tetrahydropyridin-4-yl)benzyl)-1H-indol-5-yl)-5-methyl-1H-pyrazole-3-carboxamide] | – | – | 47 nM | 123 nM
Cc1cc(C(N)=O)nn1-c1ccc2c(ccn2Cc2ccc(C3=CCC4(CC3)CN(C)C4)cc2)c1 [Example 15-3, 5-methyl-1-(1-(4-(2-methyl-2-azaspiro[3.5]non-6-en-7-yl)benzyl)-1H-indol-5-yl)-1H-pyrazole-3-carboxamide] | 96 nM | 398 nM | – | –
Cc1cc(C(N)=O)nn1-c1ccc2c(ccn2Cc2ccc(-c3ccc(CN4CCOCC4)cc3)cc2)c1 [Example 1-37, 5-methyl-1-(1-((4′-(morpholinomethyl)-[1,1′-biphenyl]-4-yl)methyl)-1H-indol-5-yl)-1H-pyrazole-3-carboxamide] | 75 nM | 206 nM | – | –
Cc1cc(C(N)=O)nn1-c1ccc2c(ccn2Cc2ccc(-c3ccc4cnn(C)c4c3)cc2)c1 [Example 1-22, 5-methyl-1-(1-(4-(1-methyl-1H-indazol-6-yl)benzyl)-1H-indol-5-yl)-1H-pyrazole-3-carboxamide] | 167 nM | 507 nM | – | –
Cc1cc(C(N)=O)nn1-c1ccc2c(ccn2Cc2ccc(C3CCN(C)CC3(C)C)cc2)c1 (centres unmarked) [Example 16-1, 5-methyl-1-(1-(4-(1,3,3-trimethylpiperidin-4-yl)benzyl)-1H-indol-5-yl)-1H-pyrazole-3-carboxamide] | 171 nM | 966 nM | – | –
Cc1cc(C(N)=O)nn1-c1ccc2c(ccn2Cc2ccc(C3CCN(C)CC3(C)C)cc2)c1 (single isomer, unassigned) [Example 16-3, 5-methyl-1-(1-(4-(1,3,3-trimethylpiperidin-4-yl)benzyl)-1H-indol-5-yl)-1H-pyrazole-3-carboxamide] | – | – | 1040 nM | 3190 nM
